Data set [1] in a line: Clearance in human hepatocytes at 1 uM measured up to 6 hrs by LC-MS/MS analysis relative to hepatic blood flow. In kind it is ADME, cell-based, Hepatocyte. The settings on record: read-out: CLH.
Data set [2] in a line: Clearance in human liver microsomes at 1 uM followed by NADPH addition measured up to 60 mins by LC-MS/MS analysis relative to hepatic blood flow. In kind it is ADME, Microsome. The conditions noted are these: read-out: CLH.

Molecules are shown by their SMILES. Some results are limits rather than exact numbers.

Regarding `Cc1c(C(=O)NCC(C)(C)O)sc2ncn(Cc3nc(C[C@H](O)c4ccc(Cl)cc4)no3)c(=O)c12`, the hepatic extraction ratio at 6 h, 1 µM in data set [1] was 0.18. In addition, the hepatic extraction ratio at 1 h, 1 µM in data set [2] was below 0.23.

Turning to `CNC(=O)c1sc2ncn(Cc3nc(C[C@H](O)c4ccc5c(c4)OCO5)no3)c(=O)c2c1C`, the hepatic extraction ratio at 6 h, 1 µM in data set [1] came to 0.24. For the same compound, in data set [2], the hepatic extraction ratio at 1 h, 1 µM turned out to be 0.29.

As for `Cc1c(C(N)=O)sc2ncn(Cc3nc(C[C@H](O)c4ccc5c(c4)OCO5)no3)c(=O)c12`, the hepatic extraction ratio at 6 h, 1 µM in data set [1] amounted to 0.24. Besides, the hepatic extraction ratio at 1 h, 1 µM in data set [2] was below 0.23.

In the case of `O=C1NCCc2c1sc1ncn(Cc3nc(C[C@H](O)c4ccc(Cl)cc4)no3)c(=O)c21`, in data set [1], the hepatic extraction ratio at 6 h, 1 µM amounted to 0.31. Further, the hepatic extraction ratio at 1 h, 1 µM in data set [2] is below 0.23.

With `Cc1c(C(N)=O)sc2ncn(Cc3nc(C[C@H](O)c4cc(F)cc(F)c4)no3)c(=O)c12`, in data set [1], the hepatic extraction ratio at 6 h, 1 µM came out at 0.23. Further, the hepatic extraction ratio at 1 h, 1 µM in data set [2] is below 0.23.

As to `Cc1c(C(N)=O)sc2ncn(Cc3nc(C[C@H](O)c4cc5ccccc5o4)no3)c(=O)c12`, the hepatic extraction ratio at 6 h, 1 µM in data set [1] came out at 0.36. In data set [2], the hepatic extraction ratio at 1 h, 1 µM is below 0.23.

In the case of `CNC(=O)c1sc2ncn(Cc3nc(C[C@H](O)c4ccc(Cl)cc4)no3)c(=O)c2c1C`, the hepatic extraction ratio at 6 h, 1 µM in data set [1] stood at 0.29. Besides, the hepatic extraction ratio at 1 h, 1 µM in data set [2] was below 0.23.

Turning to `Cc1c(C(=O)NCC(F)F)sc2ncn(Cc3nc(C[C@H](O)c4ccc(Cl)cc4)no3)c(=O)c12`, the hepatic extraction ratio at 6 h, 1 µM in data set [1] came out at 0.36. Further, the hepatic extraction ratio at 1 h, 1 µM in data set [2] amounted to 0.24.

In the case of `Cc1c(C(N)=O)sc2ncn(Cc3nc(C[C@H](O)c4ccc(Cl)cc4)no3)c(=O)c12`, in data set [1], the hepatic extraction ratio at 6 h, 1 µM is 0.25. Also, the hepatic extraction ratio at 1 h, 1 µM in data set [2] turned out to be 0.29.

For the compound `NC(=O)c1sc2ncn(Cc3nc(C[C@H](O)c4ccc(Cl)cc4)no3)c(=O)c2c1Cl`, in data set [1], the hepatic extraction ratio at 6 h, 1 µM was 0.39. Further, the hepatic extraction ratio at 1 h, 1 µM in data set [2] was below 0.23.
